For assay [1], the target named is human A2b adenosine receptor (Homo sapiens (Human), UniProt P29275). The experiment in a line: A2b radioligand filtration binding assay. The settings on record: for IC50: membranes from HEK293 cells expressing human A2b receptor. The method, then:
Measurement of A2b Binding Affinity
The reported affinity of the compounds of the invention for the human A2b adenosine receptor was determined experimentally using a radioligand filtration binding assay. This assay measures the amount of binding of a tritiated proprietary A2b receptor antagonist, in the presence and absence of a compound of the invention, to membranes made from HEK293 cells recombinantly expressing the human A2b adenosine receptor (Perkin Elmer, Cat. No. ES-013-C).
148 μL (135 μg/mL) membranes and 2 μL test compounds were transferred to individual wells of a 96-well polypropylene assay plate and incubated for 15 to 30 minutes at room temperature with agitation. Tritiated radioligand was diluted to a concentration of 14 nM in assay buffer (phosphate buffered saline without Magnesium and Calcium, pH 7.4; GE Healthcare Life Sciences, Cat. No. SH30256.01) and then 50 μL of the solution were transferred to each well of the assay plate. To define total and non-specific binding, wells containing 1% DMSO and 20 μM N-ethylcarboxamidoadenosine (Tocris Bioscience, Cat. No. 1691) respectively, were also included. The wells of the assay plate were incubated at room temperature for 60 minutes with agitation, then filtered using a FilterMate Harvester® (Perkin Elmer) or similar equipment through a UniFilter-96® PEI coated plate (Perkin Elmer Cat. No. 6005274 or 6005277). Filtering was achieved by aspirating the contents of the assay plate for 5 seconds, then washing and aspirating the contents three times with ice-cooled wash buffer (assay buffer supplemented with 0.0025% Brij58) and allowing the vacuum manifold to dry the plate for 30 seconds. The filter plate was incubated for at least 1 hour at 55° C. and allowed to dry. The bottom of the filter plate was then sealed with backing tape. 40 μL Ultima Gold™ (Perkin Elmer, Cat. No. 6013329) was added to each well of the filter plate and the top of the plate was sealed with TopSeal-A PLUS® clear plate seal (Perkin Elmer, Cat. No. 6050185). The plates were then incubated for at least 20 minutes, and then the amount of radioactivity remaining in each well was determined using a TopCount® (Perkin Elmer) scintillation counter. After normalization to total and non-specific binding, the percent effect at each compound concentration was calculated. The plot of percent effect versus the log of compound concentration was analyzed electronically using a 4-parameter logistic fit based on the Levenberg-Marquardt algorithm to generate IC50 values.

Assay [2] has as its target human A2a adenosine receptor (Homo sapiens (Human), UniProt P29274). The assay can be described thus: A2a receptor affinity radioligand binding assay ([3H] SCH58261). The following applies: membranes from HEK293 or CHO cells expressing human A2a receptor. The method, then: The A2a receptor affinity binding assay measured the amount of binding of a tritiated ligand with high affinity for the A2a adenosine receptor to membranes made from HEK293 or CHO cells recombinantly expressing the human A2a adenosine receptor, in the presence of varying concentrations of a compound of the invention.
Measurement of A2a Binding Affinity Using Radioligand Binding
148 μL (5 μg/mL) membranes (Perkin Elmer, Cat. No. RBHA2aM400UA) and 2 μL compounds of the invention to be tested (test compound) were transferred to individual wells of a 96-well polypropylene assay plate and incubated for 15 to 30 minutes at room temperature. [^3H] SCH58261 ((7-(2-phenylethyl)-5-amino-2-(2-furyl)-pyrazolo-[4,3-e]-1,2,4-triazolo[1,5-c]pyrimidine)) was diluted in assay buffer (50 mM Tris pH 7.4, 10 mM MgCl2, 0.005% Tween20) to a concentration of 4 nM and 50 μL transferred to each well of the assay plate. To define total and non-specific binding, wells containing 1% DMSO and 1 μM ZM241385 (Tocris Bioscience, Cat. No. 1036) respectively, were also included. The assay plate was incubated at room temperature for 60 minutes with agitation. Using a FilterMate Harvester® (Perkin Elmer), the contents of the assay plate were filtered through a UniFilter-96® PEI coated plate (Perkin Elmer Cat. No. 6005274 or 6005277). Filtering was achieved by aspirating the contents of the assay plate for 5 seconds, then washing and aspirating the contents three times with ice-cooled wash buffer (50 mM Tris-HCl pH 7.4, 150 mM NaCl) and allowing the vacuum manifold to dry the plate for 30 seconds. The filter plate was incubated for at least 1 hour at 55° C., and allowed to dry. The bottom of the filter plate was sealed with backing tape. 40 μL Ultima Gold™ (Perkin Elmer, Cat. No. 6013329) was added to each well of the filter plate and the top of the plate was sealed with TopSeal-A PLUS® clear plate seal (Perkin Elmer, Cat. No. 6050185). The plate was incubated for at least 20 minutes, and then the amount of radioactivity remaining in each well was determined using a TopCount® (Perkin Elmer) scintillation counter. After normalization to total and non-specific binding, the percent effect at each compound concentration was calculated. The plot of percent effect versus the log of compound concentration was analyzed electronically using a 4-parameter logistic fit based on the Levenberg-Marquardt algorithm to generate IC50 values.

Sequence of human A2a adenosine receptor (P29274 whole entry): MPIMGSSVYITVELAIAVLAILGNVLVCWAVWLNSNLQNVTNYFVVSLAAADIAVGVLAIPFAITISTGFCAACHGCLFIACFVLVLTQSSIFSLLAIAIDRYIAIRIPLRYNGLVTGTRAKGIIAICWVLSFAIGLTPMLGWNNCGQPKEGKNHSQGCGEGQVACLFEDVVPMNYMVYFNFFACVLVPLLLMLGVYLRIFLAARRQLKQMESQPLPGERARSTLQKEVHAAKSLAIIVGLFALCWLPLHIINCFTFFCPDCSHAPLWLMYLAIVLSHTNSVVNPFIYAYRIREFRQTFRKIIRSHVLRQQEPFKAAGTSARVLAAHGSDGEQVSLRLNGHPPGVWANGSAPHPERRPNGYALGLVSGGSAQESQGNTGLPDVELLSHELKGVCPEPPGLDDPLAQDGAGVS
Sequence of human A2b adenosine receptor (P29275 whole entry): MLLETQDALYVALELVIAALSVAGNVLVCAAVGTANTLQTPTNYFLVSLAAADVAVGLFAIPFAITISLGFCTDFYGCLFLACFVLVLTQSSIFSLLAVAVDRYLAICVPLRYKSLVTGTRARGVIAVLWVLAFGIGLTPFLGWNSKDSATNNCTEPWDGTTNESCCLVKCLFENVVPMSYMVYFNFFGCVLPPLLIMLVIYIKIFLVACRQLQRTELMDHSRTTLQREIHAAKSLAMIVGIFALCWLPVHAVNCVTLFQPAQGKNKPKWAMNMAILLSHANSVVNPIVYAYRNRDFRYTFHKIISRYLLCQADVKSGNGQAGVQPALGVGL

As to `COc1cc(F)cc2c1nc(N)n1nc(C3CC(F)CN(c4cnn(CC5(O)CCC5)c4)C3)nc21` (single isomer, unassigned) [Example 72, 1-(4-((3R,5S or 3S,5R)-3-(5-amino-9-fluoro-7-methoxy-[1,2,4]triazolo[1,5-c]quinazolin-2-yl)-5-fluoropiperidin-1-yl)-1H-pyrazol-1-yl)methyl)cyclobutan-1-ol], the IC50 in assay [1] was found to be 484 nM; in assay [2] it was 2 nM.

Regarding `COc1cc(F)cc2c1nc(N)n1nc(C3CC(F)CN(c4cnn(CC5(O)CCC5)c4)C3)nc21` (single isomer, unassigned) [Example 73, 1-(4-((3S,5R or 3R,5S)-3-(5-amino-9-fluoro-7-methoxy-[1,2,4]triazolo[1,5-c]quinazolin-2-yl)-5-fluoropiperidin-1-yl)-1H-pyrazol-1-yl)methyl)cyclobutan-1-ol], the IC50 in assay [1] amounted to 5120 nM; in assay [2], 436 nM.

Take `COc1cc(F)cc2c1nc(N)n1nc([C@@H]3C[C@@H](F)CN(c4cnn(CC(C)(C)O)c4)C3)nc21` (single isomer, unassigned) [Example 74, 1-(4-((3R,5R or 3S,5S)-3-(5-amino-9-fluoro-7-methoxy-[1,2,4]triazolo[1,5-c]quinazolin-2-yl)-5-fluoropiperidin-1-yl)-1H-pyrazol-1-yl)-2-methylpropan-2-ol]: the IC50 was determined as 153 nM in assay [1] and 0.9 nM in assay [2].

As to `COc1cc(F)cc2c1nc(N)n1nc([C@H]3C[C@H](F)CN(c4cnn(CC(C)(C)O)c4)C3)nc21` (single isomer, unassigned) [Example 75, 1-(4-((3S,5S or 3R,5R)-3-(5-amino-9-fluoro-7-methoxy-[1,2,4]triazolo[1,5-c]quinazolin-2-yl)-5-fluoropiperidin-1-yl)-1H-pyrazol-1-yl)-2-methylpropan-2-ol], the “A2B binding % Inh. @ 10000 nM” value in assay [1] is listed as 54% Inh. In assay [2], the IC50 was 56.9 nM.

As for `COc1cc(F)cc2c1nc(N)n1nc(C3CC(F)CN(c4cn(CC(C)(C)O)nc4C)C3)nc21` (single isomer, unassigned) [Example 76, 1-(4-((3R,5R or 3S,5S)-3-(5-amino-9-fluoro-7-methoxy-[1,2,4]triazolo[1,5-c]quinazolin-2-yl)-5-fluoropiperidin-1-yl)-3-methyl-1H-pyrazol-1-yl)-2-methylpropan-2-ol], in assay [1], the “A2B binding % Inh. @ 10000 nM” value was 34% Inh. The IC50 in assay [2] is 256 nM.

Turning to `COc1cc(F)cc2c1nc(N)n1nc(C3CC(F)CN(c4cn(CC(C)(C)O)nc4C)C3)nc21` (single isomer, unassigned) [Example 77, 1-(4-((3S,5S or 3R,5R)-3-(5-amino-9-fluoro-7-methoxy-[1,2,4]triazolo[1,5-c]quinazolin-2-yl)-5-fluoropiperidin-1-yl)-3-methyl-1H-pyrazol-1-yl)-2-methylpropan-2-ol], the figures for the IC50 in assay [1] and in assay [2] were 108 nM and 0.4 nM, respectively.

As for `COc1cc(F)cc2c1nc(N)n1nc(C3CC(F)CN(c4cnn(CC5(O)CCC5)c4)C3)nc21` (single isomer, unassigned) [Example 78, 1-(4-((3R,5R or 3S,5S)-3-(5-amino-9-fluoro-7-methoxy-[1,2,4]triazolo[1,5-c]quinazolin-2-yl)-5-fluoropiperidin-1-yl)-1H-pyrazol-1-yl)methyl)cyclobutan-1-ol], the values for the IC50 in assay [1] and in assay [2] were 234 nM and 0.9 nM, respectively.

For `COc1cc(F)cc2c1nc(N)n1nc(C3CC(F)CN(c4cnn(CC5(O)CCC5)c4)C3)nc21` (single isomer, unassigned) [Example 79, 1-(4-((3S,5S or 3R,5R)-3-(5-amino-9-fluoro-7-methoxy-[1,2,4]triazolo[1,5-c]quinazolin-2-yl)-5-fluoropiperidin-1-yl)-1H-pyrazol-1-yl)methyl)cyclobutan-1-ol], the IC50 in assay [1] came to 3140 nM; in assay [2], 16 nM.

With `COc1cc2nc(N)n3nc([C@@H]4C[C@@H](F)CN(c5cnn(CC(C)(C)O)c5)C4)nc3c2cc1F` (single isomer, unassigned) [Example 80, 1-(4-((3R,5R or 3S,5S)-3-(5-amino-9-fluoro-8-methoxy-[1,2,4]triazolo[1,5-c]quinazolin-2-yl)-5-fluoropiperidin-1-yl)-1H-pyrazol-1-yl)-2-methylpropan-2-ol], the 50% inhibitory concentration (IC50) in assay [1] is 404 nM; in assay [2], 11.6 nM.

On to `COc1cc2nc(N)n3nc([C@H]4C[C@H](F)CN(c5cnn(CC(C)(C)O)c5)C4)nc3c2cc1F` (single isomer, unassigned) [Example 81, 1-(4-((3S,5S or 3R,5R)-3-(5-amino-9-fluoro-8-methoxy-[1,2,4]triazolo[1,5-c]quinazolin-2-yl)-5-fluoropiperidin-1-yl)-1H-pyrazol-1-yl)-2-methylpropan-2-ol], for which the half-inhibitory concentration (IC50) in assay [1] amounted to 6580 nM; in assay [2] it was 121 nM.

In the case of `COc1cc2nc(N)n3nc([C@@H]4CCCN(c5cnn([C@@H]6CCC[C@@]6(C)O)c5)C4)nc3c2cc1F` (single isomer, unassigned) [Example 82, (1R or 1S,2R or 2S)-2-(4-((R)-3-(5-amino-9-fluoro-8-methoxy-[1,2,4]triazolo[1,5-c]quinazolin-2-yl)piperidin-1-yl)-1H-pyrazol-1-yl)-1-methylcyclopentan-1-ol], the results for the IC50 in assay [1] and in assay [2] were 63 nM and 4.9 nM, respectively.

As for `COc1cc2nc(N)n3nc([C@@H]4CCCN(c5cnn([C@H]6CCC[C@]6(C)O)c5)C4)nc3c2cc1F` (single isomer, unassigned) [Example 83, (1S or 1R,2S or 2R)-2-(4-((R)-3-(5-amino-9-fluoro-8-methoxy-[1,2,4]triazolo[1,5-c]quinazolin-2-yl)piperidin-1-yl)-1H-pyrazol-1-yl)-1-methylcyclopentan-1-ol], the IC50 in assay [1] is 113 nM; in assay [2] it was 2.7 nM.

`COc1cc2nc(N)n3nc([C@@H]4CCCN(c5cnn(C6CCCC6O)c5)C4)nc3c2cc1F` (single isomer, unassigned) [Example 84, (1R or 1S,2R or 2S)-2-(4-((R)-3-(5-amino-9-fluoro-8-methoxy-[1,2,4]triazolo[1,5-c]quinazolin-2-yl)piperidin-1-yl)-1H-pyrazol-1-yl)cyclopentan-1-ol]: the 50% inhibitory concentration (IC50) in assay [1] amounted to 117 nM; in assay [2], 2.3 nM.

As to `COc1cc2nc(N)n3nc([C@@H]4CCCN(c5cnn(C6CCCC6O)c5)C4)nc3c2cc1F` (single isomer, unassigned) [Example 85, (1S or 1R,2S or 2R)-2-(4-((R)-3-(5-amino-9-fluoro-8-methoxy-[1,2,4]triazolo[1,5-c]quinazolin-2-yl)piperidin-1-yl)-1H-pyrazol-1-yl)cyclopentan-1-ol], the 50% inhibitory concentration (IC50) in assay [1] stood at 192 nM; in assay [2] it was 5.2 nM.

For orientation: IC50 means the concentration at which inhibition is half-maximal. Low values mean greater potency, high ones weaker potency.

The values above are taken from patent US11312719B2, “9-substituted amino triazolo quinazoline derivatives as adenosine receptor antagonists, pharmaceutical compositions and their use” (Merck Sharp & Dohme Corp., priority 2018, dated 2022).
